In patent publication US11427553B2, “Dihydrooxadiazinones” (Bayer Aktiengesellschaft, priority 2017, dated 2022):

How the values were obtained:
human full length PDE3B = human full length PDE3B (Homo sapiens (Human), UniProt Q13370); assay: Assay 5 PDE3B enzyme inhibition (3H-cAMP SPA); format: biochemical; conditions: Sf9 cell extract
Outline: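 Inhibition was measured by scintillation proximity using [8-3H]adenosine 3′,5′-cyclic phosphate as substrate and full-length human PDE3B from an Sf9 overexpression extract, run one hour at room temperature at pH 7.5.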

HeLa cells = assay: Assay 1 cell proliferation measurement (CTG, 72 h), HeLa; format: cell-based, human; conditions: Homo sapiens, HeLa; Assay 1, 72 h, Cell Titer Glo; read-out: HeLa IC50 [nM] (Cervical cancer)
Outline: (§1)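 CTG luminescence readout after 72 h compound exposure at 37 °C; 10-point 2.5-fold dilutions from 100 nM max final; DMSO 0.3% vehicle. IC50 from 4-parameter fit, normalised to 0 h plate (max inhibition) and DMSO (min inhibition).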

SK-MEL-3 cells = assay: Assay 1 cell proliferation measurement (CTG, 72 h), SK-MEL-3; format: cell-based, human; conditions: Homo sapiens, SK-MEL3; Assay 1, 72 h, Cell Titer Glo; read-out: SK-MEL-3 IC50 [nM] (melanoma)
Outline: as §1

human full length PDE3A = human full length PDE3A (Homo sapiens (Human), UniProt Q14432); assay: Assay 4 PDE3A enzyme inhibition (3H-cAMP SPA); format: biochemical; conditions: Sf9 cell extract
human full length PDE3A, sequence (Q14432 whole entry): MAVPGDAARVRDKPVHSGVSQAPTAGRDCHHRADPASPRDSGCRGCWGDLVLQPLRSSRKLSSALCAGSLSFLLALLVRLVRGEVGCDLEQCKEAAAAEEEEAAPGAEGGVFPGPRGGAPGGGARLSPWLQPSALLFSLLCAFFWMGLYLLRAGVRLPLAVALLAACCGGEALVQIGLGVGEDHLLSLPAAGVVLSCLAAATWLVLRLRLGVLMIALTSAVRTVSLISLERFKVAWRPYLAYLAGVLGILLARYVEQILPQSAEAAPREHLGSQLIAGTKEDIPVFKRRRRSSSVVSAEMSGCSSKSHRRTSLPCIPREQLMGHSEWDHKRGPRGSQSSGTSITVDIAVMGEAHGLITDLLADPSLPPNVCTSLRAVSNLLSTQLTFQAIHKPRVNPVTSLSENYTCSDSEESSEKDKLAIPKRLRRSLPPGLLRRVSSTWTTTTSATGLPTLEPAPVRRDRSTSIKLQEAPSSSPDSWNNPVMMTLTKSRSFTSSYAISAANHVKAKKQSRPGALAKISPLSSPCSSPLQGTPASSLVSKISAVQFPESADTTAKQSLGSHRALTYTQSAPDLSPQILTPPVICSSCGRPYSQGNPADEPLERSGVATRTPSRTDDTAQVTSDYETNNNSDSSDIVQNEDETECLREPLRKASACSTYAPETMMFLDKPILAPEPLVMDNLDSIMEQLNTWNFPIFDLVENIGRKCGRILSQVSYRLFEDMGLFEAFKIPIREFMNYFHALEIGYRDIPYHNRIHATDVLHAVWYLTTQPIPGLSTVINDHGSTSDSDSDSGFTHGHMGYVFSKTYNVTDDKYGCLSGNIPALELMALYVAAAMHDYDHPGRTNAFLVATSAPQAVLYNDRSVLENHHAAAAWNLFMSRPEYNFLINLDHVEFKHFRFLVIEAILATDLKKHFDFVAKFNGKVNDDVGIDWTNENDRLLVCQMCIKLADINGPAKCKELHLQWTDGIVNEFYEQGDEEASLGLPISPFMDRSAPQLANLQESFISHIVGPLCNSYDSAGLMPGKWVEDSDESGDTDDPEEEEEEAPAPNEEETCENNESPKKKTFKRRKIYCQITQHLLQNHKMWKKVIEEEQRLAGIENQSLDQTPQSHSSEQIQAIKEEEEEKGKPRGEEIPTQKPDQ
Outline: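 Enzyme: Sf9 extract with overexpressed full-length PDE3A; substrate [8-3H]cAMP, 0.025 μCi/well; 60 min, room temperature, Tris/HCl pH 7.5 buffer with MgCl2, EDTA, BSA.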

human full length PDE3B, sequence (Q13370 whole entry): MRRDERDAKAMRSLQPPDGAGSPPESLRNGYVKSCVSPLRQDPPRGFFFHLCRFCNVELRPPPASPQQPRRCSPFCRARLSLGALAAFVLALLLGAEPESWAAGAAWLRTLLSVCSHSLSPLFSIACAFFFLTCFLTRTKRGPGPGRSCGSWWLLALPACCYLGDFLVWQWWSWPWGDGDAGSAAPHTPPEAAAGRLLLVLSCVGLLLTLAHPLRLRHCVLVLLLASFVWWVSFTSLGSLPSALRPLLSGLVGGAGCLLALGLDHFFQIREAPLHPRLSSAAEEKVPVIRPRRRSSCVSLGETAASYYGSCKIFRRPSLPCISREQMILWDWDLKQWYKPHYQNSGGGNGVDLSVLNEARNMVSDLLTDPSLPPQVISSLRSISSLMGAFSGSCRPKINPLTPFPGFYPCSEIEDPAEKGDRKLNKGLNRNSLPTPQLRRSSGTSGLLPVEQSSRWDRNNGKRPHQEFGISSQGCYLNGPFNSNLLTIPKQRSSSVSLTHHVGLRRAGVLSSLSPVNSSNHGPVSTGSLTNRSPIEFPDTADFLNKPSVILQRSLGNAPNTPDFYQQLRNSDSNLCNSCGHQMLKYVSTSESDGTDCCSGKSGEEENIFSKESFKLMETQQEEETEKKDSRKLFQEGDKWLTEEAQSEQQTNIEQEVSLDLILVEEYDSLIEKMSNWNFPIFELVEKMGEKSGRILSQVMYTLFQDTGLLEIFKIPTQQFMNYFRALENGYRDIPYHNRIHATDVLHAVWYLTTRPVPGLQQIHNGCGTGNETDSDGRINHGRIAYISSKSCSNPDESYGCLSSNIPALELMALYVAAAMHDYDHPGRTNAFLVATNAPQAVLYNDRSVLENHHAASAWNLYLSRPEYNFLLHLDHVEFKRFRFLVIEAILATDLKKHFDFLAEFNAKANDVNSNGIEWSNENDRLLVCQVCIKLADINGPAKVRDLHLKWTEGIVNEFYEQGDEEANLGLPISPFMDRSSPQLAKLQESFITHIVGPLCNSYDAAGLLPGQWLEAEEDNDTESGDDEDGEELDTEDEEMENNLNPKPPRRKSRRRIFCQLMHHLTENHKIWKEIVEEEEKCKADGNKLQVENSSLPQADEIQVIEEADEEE

SMILES	IC50 (human full length PDE3B) [nM]	IC50 (HeLa cells) [nM]	IC50 (SK-MEL-3 cells) [nM]	IC50 (human full length PDE3A) [nM]
O=C1NN=C(c2ccc(-c3ccccc3O)c(F)c2)CO1 [Example 106, 5-(2-Fluoro-2′-hydroxy[1,1′-biphenyl]-4-yl)-3,6-dihydro-2H-1,3,4-oxadiazin-2-one]	240	9	16	120
O=C1NN=C(c2ccc(-c3csc(C(F)(F)F)c3)c(C(F)(F)F)c2)CO1 [Example 145, 5-{3-(Trifluoromethyl)-4-[5-(trifluoromethyl)thiophen-3-yl]phenyl}-3,6-dihydro-2H-1,3,4-oxadiazin-2-one]	410	27	47	240
O=C1NN=C(c2ccc(C3=CCOC3)c(C(F)(F)F)c2)CO1 [Example 149, 5-[4-(2,5-Dihydrofuran-3-yl)-3-(trifluoromethyl)phenyl]-3,6-dihydro-2H-1,3,4-oxadiazin-2-one]	132	2	4	163
CCn1cnc(-c2ccc(C3=NNC(=O)OC3)cc2C(F)(F)F)c1 [Example 151, 5-[4-(1-Ethyl-1H-imidazol-4-yl)-3-(trifluoromethyl)phenyl]-3,6-dihydro-2H-1,3,4-oxadiazin-2-one]	159	5	5	69
CC(C)(C)/C=C/c1ccc(C2=NNC(=O)OC2)cc1C(F)(F)F [Example 144, 5-{4-[3,3-Dimethylbut-1-en-1-yl]-3-(trifluoromethyl)phenyl}-3,6-dihydro-2H-1,3,4-oxadiazin-2-one]	100	6	13	55
O=C1NN=C(c2ccc(Cl)c(C(F)(F)F)c2)CO1 [Intermediate 64, 5-[4-Chloro-3-(trifluoromethyl)phenyl]-3,6-dihydro-2H-1,3,4-oxadiazin-2-one]	490	29	53	610
Cc1ccc(-c2ccc(C3=NNC(=O)OC3)cc2F)cc1N [Example 103, 5-(3′-Amino-2-fluoro-4′-methyl[1,1′-biphenyl]-4-yl)-3,6-dihydro-2H-1,3,4-oxadiazin-2-one]	140	3	6	66
Cc1ccc(-c2ccc(C3=NNC(=O)O[C@H]3C)cc2C(F)(F)F)cc1 [Example 189, (6S)-6-Methyl-5-[4′-methyl-2-(trifluoromethyl)[1,1′-biphenyl]-4-yl]-3,6-dihydro-2H-1,3,4-oxadiazin-2-one]	200	6	12	190
COc1ccccc1-c1ccc(C2=NNC(=O)O[C@H]2C)cc1C(F)(F)F [Example 180, (6S)-5-[2′-Methoxy-2-(trifluoromethyl)[1,1′-biphenyl]-4-yl]-6-methyl-3,6-dihydro-2H-1,3,4-oxadiazin-2-one]	250	36	48	250
Cc1cc(-c2ccc(C3=NNC(=O)OC3)cc2F)ccc1F [Example 86, 5-(2,4′-Difluoro-3′-methylbiphenyl-4-yl)-3,6-dihydro-2H-1,3,4-oxadiazin-2-one]	210	6	25	84
O=C1NN=C(c2ccc(Cl)c(OC(F)(F)F)c2)CO1 [Intermediate 73, 5-[4-Chloro-3-(trifluoromethoxy)phenyl]-3,6-dihydro-2H-1,3,4-oxadiazin-2-one]	> 1000	58	> 100	720
O=C1NN=C(c2ccc(-c3ccc4cc[nH]c4c3)c(C(F)(F)F)c2)CO1 [Example 62, 5-[4-(1H-Indol-6-yl)-3-(trifluoromethyl)phenyl]-3,6-dihydro-2H-1,3,4-oxadiazin-2-one]	180	6	14	85
Cc1ncc(-c2ccc(C3=NNC(=O)OC3)cc2C(F)(F)F)s1 [Example 54, 5-[4-(2-Methyl-1,3-thiazol-5-yl)-3-(trifluoromethyl)phenyl]-3,6-dihydro-2H-1,3,4-oxadiazin-2-one]	89	1	3	100
COc1nc(C)ccc1-c1ccc(C2=NNC(=O)OC2)cc1C(F)(F)F [Example 53, 5-[4-(2-Methoxy-6-methylpyridin-3-yl)-3-(trifluoromethyl)phenyl]-3,6-dihydro-2H-1,3,4-oxadiazin-2-one]	390	36	13000	580
C[C@@H]1OC(=O)NN=C1c1ccc(-c2ccc(F)c(F)c2F)c(C(F)(F)F)c1 [Example 170, (6S)-6-Methyl-5-[2′,3′,4′-trifluoro-2-(trifluoromethyl)[1,1′-biphenyl]-4-yl]-3,6-dihydro-2H-1,3,4-oxadiazin-2-one]	180	27	40	190
C[C@@H](O)CNc1ccc(C2=NNC(=O)OC2)cc1C(F)(F)F [Example 216, 5-[4-{[(2R)-2-Hydroxypropyl]amino}-3-(trifluoromethyl)phenyl]-3,6-dihydro-2H-1,3,4-oxadiazin-2-one]	167	6	7	103

More lines, in order of falling IC50 (human full length PDE3B), values ahead:

IC50 (human full length PDE3B) [nM]	IC50 (HeLa cells) [nM]	IC50 (SK-MEL-3 cells) [nM]	IC50 (human full length PDE3A) [nM]	SMILES
88	1	3	52	CC(C)Nc1ccc(C2=NNC(=O)OC2)cc1C(F)(F)F [Example 137, 5-[4-(Propan-2-ylamino)-3-(trifluoromethyl)phenyl]-3,6-dihydro-2H-1,3,4-oxadiazin-2-one]
80	5	10	180	Nc1cc(-c2ccc(C3=NNC(=O)OC3)cc2C(F)(F)F)ccc1F [Example 56, 5-[3′-Amino-4′-fluoro-2-(trifluoromethyl)biphenyl-4-yl]-3,6-dihydro-2H-1,3,4-oxadiazin-2-one]
79	33	> 100	37	COc1cc(-c2ccc(C3=NNC(=O)OC3)cc2F)ccn1 [Example 95, 5-[3-Fluoro-4-(2-methoxypyridin-4-yl)phenyl]-3,6-dihydro-2H-1,3,4-oxadiazin-2-one]
78	22	44	31	Cn1ncc2ccc(-c3ccc(C4=NNC(=O)OC4)cc3C(F)(F)F)cc21 [Example 75, 5-[4-(1-Methyl-1H-indazol-6-yl)-3-(trifluoromethyl)phenyl]-3,6-dihydro-2H-1,3,4-oxadiazin-2-one]
78	7	13	33	COc1ccc(-c2ccc(C3=NNC(=O)OC3)cc2F)cn1 [Example 85, 5-[3-Fluoro-4-(6-methoxypyridin-3-yl)phenyl]-3,6-dihydro-2H-1,3,4-oxadiazin-2-one]
71	49	64	63	Cc1cc(C2=NNC(=O)OC2)ccc1-c1cncnc1 [Example 14, 5-[3-Methyl-4-(pyrimidin-5-yl)phenyl]-3,6-dihydro-2H-1,3,4-oxadiazin-2-one]
58	15	27	58	C[C@@H]1OC(=O)NN=C1c1ccc(-c2ccc3[nH]ccc3c2)c(C(F)(F)F)c1 [Example 173, (6S)-5-[4-(1H-Indol-5-yl)-3-(trifluoromethyl)phenyl]-6-methyl-3,6-dihydro-2H-1,3,4-oxadiazin-2-one]
48	4	6	49	C[C@@H]1OC(=O)NN=C1c1ccc(-c2ccc3cc[nH]c3c2)c(C(F)(F)F)c1 [Example 185, (6S)-5-[4-(1H-Indol-6-yl)-3-(trifluoromethyl)phenyl]-6-methyl-3,6-dihydro-2H-1,3,4-oxadiazin-2-one]
39	5	7	42	Nc1ccc(-c2ccc(C3=NNC(=O)OC3)cc2C(F)(F)F)cn1 [Example 40, 5-[4-(6-Aminopyridin-3-yl)-3-(trifluoromethyl)phenyl]-3,6-dihydro-2H-1,3,4-oxadiazin-2-one]
33	1	3	31	CC(C)=Cc1ccc(C2=NNC(=O)OC2)cc1C(F)(F)F [Example 63, 5-[4-(2-Methylprop-1-en-1-yl)-3-(trifluoromethyl)phenyl]-3,6-dihydro-2H-1,3,4-oxadiazin-2-one]
27	2	3	13	O=C1NN=C(c2ccc(C3=CCC(O)CC3)c(C(F)(F)F)c2)CO1 (racemic) [Example 141, (rac)-5-[4′-Hydroxy-2-(trifluoromethyl)-2′,3′,4′,5′-tetrahydro[1,1′-biphenyl]-4-yl]-3,6-dihydro-2H-1,3,4-oxadiazin-2-one]
22	6	13	26	O=C1NN=C(c2ccc(-c3cccnc3)c(F)c2)CO1 [Example 108, 5-[3-Fluoro-4-(pyridin-3-yl)phenyl]-3,6-dihydro-2H-1,3,4-oxadiazin-2-one]
